Experimental data as given in US8889874B2, “Imidazolone-chalcone derivatives as potential anticancer agent and process for the preparation thereof” (Council of Scientific and Industrial Research, priority 2010, dated 2014).
Where two headings read alike, the source gives them in different places.

Columns and labels:
Assay in all cases: NCI anticancer screen, SRB assay, 48 h
Assay type in all cases: cell-based, human
[1] = test system: NCI-H23 (non-small cell lung); details: Homo sapiens
How it was run: (§1)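 Compounds were tested across fifty three human cancer cell lines from nine tumour types. Each line got a dose-response curve of at least five concentrations at 10-fold dilutions, with continuous drug exposure and sulforhodamine B protein staining to estimate viability or growth.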

[2] = test system: KM12 (colon); details: Homo sapiens
How it was run: as §1

[3] = test system: A498 (renal); details: Homo sapiens
How it was run: as §1

[4] = test system: ACHN (renal); details: Homo sapiens
How it was run: as §1

[5] = test system: MCF7 (breast); details: Homo sapiens
How it was run: as §1

[6] = test system: MDA-MB-231/ATCC (breast); details: Homo sapiens
How it was run: as §1

[7] = test system: MALME-3M (melanoma); details: Homo sapiens
How it was run: as §1

[8] = test system: SW-620 (colon); details: Homo sapiens
How it was run: as §1

[9] = test system: SK-OV-3 (ovarian); details: Homo sapiens
How it was run: as §1

[10] = test system: OVCAR-8 (ovarian); details: Homo sapiens
How it was run: as §1

[11] = test system: SF-268 (CNS); details: Homo sapiens
How it was run: as §1

[12] = test system: RXF 393 (renal); details: Homo sapiens
How it was run: as §1

[13] = test system: HOP-92 (non-small cell lung); details: Homo sapiens
How it was run: as §1

[14] = test system: SNB-75 (CNS); details: Homo sapiens
How it was run: as §1

[15] = test system: SK-MEL-28 (melanoma); details: Homo sapiens
How it was run: as §1

[16] = test system: BT-549 (breast); details: Homo sapiens
How it was run: as §1

[17] = test system: COLO 205 (colon); details: Homo sapiens, COLO 205
How it was run: as §1

[18] = test system: K-562 (leukemia cell line); details: Homo sapiens
How it was run: as §1

[19] = test system: NCI-H460 (non-small cell lung); details: Homo sapiens
How it was run: as §1

[20] = test system: HOP-62 (non-small cell lung); details: Homo sapiens
How it was run: as §1

[21] = test system: HS 578T (breast); details: Homo sapiens
How it was run: as §1

[22] = test system: LOX IMVI (melanoma); details: Homo sapiens
How it was run: as §1

[23] = test system: UACC-62 (melanoma); details: Homo sapiens
How it was run: as §1

[24] = test system: OVCAR-3 (ovarian); details: Homo sapiens
How it was run: as §1

[25] = test system: NCI-H522 (non-small cell lung); details: Homo sapiens
How it was run: as §1

[26] = test system: PC-3 (prostate); details: Homo sapiens
How it was run: as §1

[27] = test system: EKVX (non-small cell lung); details: Homo sapiens
How it was run: as §1

[28] = test system: 786-0 (renal); details: Homo sapiens
How it was run: as §1

[29] = test system: HT29 (colon); details: Homo sapiens
How it was run: as §1

[30] = test system: OVCAR-5 (ovarian); details: Homo sapiens
How it was run: as §1

[31] = test system: SF-295 (CNS); details: Homo sapiens
How it was run: as §1

[32] = test system: SK-MEL-2 (melanoma); details: Homo sapiens
How it was run: as §1

[33] = test system: SF-539 (CNS); details: Homo sapiens
How it was run: as §1

[34] = test system: M14 (melanoma); details: Homo sapiens
How it was run: as §1

[35] = test system: NCI-H322M (non-small cell lung); details: Homo sapiens
How it was run: as §1

[36] = test system: UO-31 (renal); details: Homo sapiens
How it was run: as §1

[37] = 48 h exposure, SRB, read-out: GI50
[38] = read-out: pGI50 (-log of molar concentration causing 50% inhibition of net cell growth) (converted)

## COc1cc(/C=C/C(=O)c2cccc(-n3cc(-c4ccccc4)[nH]c3=O)c2)ccc1O [3a, 1-3-[(E)-3-(4-hydroxy-3-methoxyphenyl)-2-propenoyl]phenyl-4-phenyl-2,3-dihydro-1H-2-imidazolone]
[1]; [37]
  GI50: 2020 nM
[1]; [38]
  GI50: 2040 nM
[2]; [37]
  GI50: 1610 nM
[2]; [38]
  GI50: 1620 nM
[3]; [37]
  GI50: 1680 nM
[3]; [38]
  GI50: 1700 nM
[4]; [37]
  GI50: 2500 nM
[4]; [38]
  GI50: 2510 nM
[5]; [37]
  GI50: 1550 nM
[5]; [38]
  GI50: 1550 nM
[6]; [37]
  GI50: 3360 nM
[6]; [38]
  GI50: 3390 nM
[7]; Malme-3M, read-out: pGI50 (-log of molar concentration causing 50% inhibition of net cell growth) (converted)
  GI50: 2690 nM
[7]; MALME-3M, 48 h exposure, SRB, read-out: GI50
  GI50: 2670 nM
[8]; [37]
  GI50: 2290 nM
[8]; [38]
  GI50: 2290 nM
[9]; [37]
  GI50: 3760 nM
[9]; [38]
  GI50: 3800 nM
[10]; [37]
  GI50: 4110 nM
[10]; [38]
  GI50: 4070 nM
[11]; [37]
  GI50: 2070 nM
[11]; [38]
  GI50: 2090 nM
[12]; RXF 393, 48 h exposure, SRB, read-out: GI50
  GI50: 2270 nM
[12]; RXF-393, read-out: pGI50 (-log of molar concentration causing 50% inhibition of net cell growth) (converted)
  GI50: 2290 nM
[13]; [37]
  GI50: 2270 nM
[13]; [38]
  GI50: 2290 nM
[14]; [37]
  GI50: 3900 nM
[14]; [38]
  GI50: 3890 nM
[15]; [37]
  GI50: 1850 nM
[15]; [38]
  GI50: 1860 nM
[16]; [37]
  GI50: 2780 nM
[16]; [38]
  GI50: 2750 nM
[17]; COLO205, read-out: pGI50 (-log of molar concentration causing 50% inhibition of net cell growth) (converted)
  GI50: 2190 nM
[17]; [37]
  GI50: 2210 nM
[18]; K562, 48 h exposure, SRB, read-out: GI50
  GI50: 2040 nM
[18]; K562, read-out: pGI50 (-log of molar concentration causing 50% inhibition of net cell growth) (converted)
  GI50: 2040 nM
[19]; [37]
  GI50: 1950 nM
[19]; [38]
  GI50: 1950 nM
[20]; [37]
  GI50: 1480 nM
[20]; [38]
  GI50: 1480 nM
[21]; [37]
  GI50: 4160 nM
[21]; [38]
  GI50: 4170 nM
[22]; [37]
  GI50: 1880 nM
[22]; [38]
  GI50: 1860 nM
[23]; [37]
  GI50: 2010 nM
[23]; [38]
  GI50: 2000 nM
[24]; [37]
  GI50: 2290 nM
[24]; [38]
  GI50: 2290 nM
[25]; [37]
  GI50: 2360 nM
[25]; [38]
  GI50: 2340 nM
[26]; PC-3, read-out: pGI50 (-log of molar concentration causing 50% inhibition of net cell growth) (converted)
  GI50: 2510 nM
[26]; one prostate cancer cell line (PC-3), exposure at least 48 hrs, read-out: GI50
  GI50: 2520 nM
[27]; [37]
  GI50: 3900 nM
[27]; [38]
  GI50: 3890 nM
[28]; [37]
  GI50: 1350 nM
[28]; [38]
  GI50: 1350 nM
[29]; HT-29, 48 h exposure, SRB, read-out: GI50
  GI50: 3770 nM
[29]; HT-29, read-out: pGI50 (-log of molar concentration causing 50% inhibition of net cell growth) (converted)
  GI50: 3800 nM
[30]; [37]
  GI50: 2040 nM
[30]; [38]
  GI50: 2040 nM
[31]; [37]
  GI50: 3040 nM
[31]; [38]
  GI50: 3020 nM
[32]; [37]
  GI50: 3650 nM
[32]; [38]
  GI50: 3630 nM
[33]; [37]
  GI50: 1910 nM
[33]; [38]
  GI50: 1910 nM
[34]; [37]
  GI50: 2610 nM
[34]; [38]
  GI50: 2630 nM
[35]; [37]
  GI50: 3390 nM
[35]; [38]
  GI50: 3390 nM
[36]; [37]
  GI50: 2180 nM
[36]; [38]
  GI50: 2190 nM
